According to patent US9522920B2, “Bromodomain inhibitors and uses thereof” (Constellation Pharmaceuticals, Inc., priority 2010, dated 2016):
Like-named read-outs stand apart in the source and are kept apart here.

Columns and labels:
BRD4(BD1) = target: T1, BRD4(BD1) (Homo sapiens, UniProt O60885); test: BRD4 AlphaLisa binding assay (Alphascreen)
T1 construct: His; made in house
Description: Specifically, in a 384 well ProxiPlate BRD4(BD1) (30 nM final) was combined with peptide (200 nM final) in 40 mM HEPES (pH 7.0), 40 mM NaCl, 1 mM DTT, 0.01% (w/v) BSA, and 0.008% (w/v) Brij-35 either in the presence of DMSO (final 1.2% DMSO) or compound dilution series in DMSO. After 20 minute incubation at room temperature Alpha streptavidin donor beads and AlphaLisa anti-Flag acceptor beads were added to a final concentration of 10 ug/mL each. After three hours equilibration plates were read on an Envision instrument and IC50s calculated using a four parameter non-linear curve fit.

IL-6 secretion = test: Cell-based IL-6 quantification assay (ELISA, Mesoscale) in LPS-stimulated THP-1 cells; details: read-out: IL6
Description: 100,000 THP-1 cells were seeded in RPMI1640-10% FBS in 96-well plates. LPS (E. Coli Invitrogen) in RPMI-10% FBS at a final concentration of 4 μg/mL was added to the wells and the cells are then incubated in the presence of various concentrations of compounds for 16 h. Plates are spun ([…], 5 min), an aliquot of 25 uL supernatant is transferred in to an ELISA plate (Mesoscale technology, MSD) and the detection of IL-6 is performed using manufacturer's instructions. The amount of cells in each well is assessed using CellTiter-Glo® (Promega). The ratio of ELISA value/CellTiter-Glo value is used to calculate the percent of inhibition of IL-6 secretion.

MYC mRNA = test: cMyc RNA quantification assay (QuantiGene) in Raji cells; format: cell-based; details: Table 7, Raji (Burkitt's lymphoma) cells, 4 h
Description: MV4:11 (AML) or Raji (Burkitt's lymphoma) cells were seeded in a 96-well plate and incubated in the presence of various concentrations of compounds for 4 h. Relative mRNA levels were quantitated by using QuantiGene 2.0 assay (Affymetrix) according to the manufacturer's recommendation. Signals were detected by using an Envision plate reader (Perkin-Elmer). Biological duplicates were averaged and normalized to vehicle (DMSO) control to calculate percent MYC mRNA levels.

[1] = Table 6, BRD4(BD1) 30 nM, H4-tetraacetyl peptide 200 nM, read-out: BRD4 Alphascreen IC50
[2] = Homo sapiens, THP-1, 16 h, Table 7, THP-1 cells, LPS 4 μg/mL, 16 h, normalised to CellTiter-Glo
[3] = Table 7, THP-1 cells, LPS 4 μg/mL, 16 h, normalised to CellTiter-Glo
[4] = Table 14, BRD4 AlphaLisa Binding Assay, read-out: Alpha screen
[5] = Table 14, THP-1 cells, LPS, 16 h
[6] = Homo sapiens, THP-1, 16 h, Table 14, THP-1 cells, LPS, 16 h

Compound	IC50 (BRD4(BD1); [1])	IC50 (IL-6 secretion; [2])	IC50 (MYC mRNA; Homo sapiens)	other results
Cc1noc2c1-c1sc(C)c(C)c1C(c1ccc(N)nc1)=NC2CC(N)=O (stereo not drawn) [Compound 102]	< 500 nM	< 500 nM	< 500 nM	
Cc1noc2c1-c1sc(C)c(C)c1C(c1ccc(Cl)cn1)=NC2CC(N)=O (stereo not drawn) [Compound 103]	< 500 nM	< 500 nM	< 500 nM	
Cc1noc2c1-c1sc(C)c(C)c1C(c1ccccc1)=NC2CC(N)=O (stereo not drawn) [Compound 108]	< 500 nM	< 500 nM	< 500 nM	
Cc1noc2c1-c1sc(C)c(C)c1C(c1ccc(F)cc1)=NC2CC(N)=O (stereo not drawn) [Compound 109]	< 500 nM	< 500 nM	< 500 nM	
Cc1cc(Cl)ccc1C1=NC(CC(N)=O)c2onc(C)c2-c2sc(C)c(C)c21 (stereo not drawn) [Compound 112]	< 500 nM	< 500 nM	< 500 nM	
CCNC(=O)CC1N=C(c2ccc(C#N)cc2)c2c(sc(C)c2C)-c2c(C)noc21 (stereo not drawn) [Compound 113]	< 500 nM	< 500 nM	< 500 nM	
Cc1noc2c1-c1sc(C)c(C)c1C(c1ccc(C#N)cc1)=NC2CC(N)=O (stereo not drawn) [Compound 115]	< 500 nM	< 500 nM	< 500 nM	
Cc1noc2c1-c1sc(C)c(C)c1C(c1ccc(C(N)=O)cc1)=NC2CC(N)=O (stereo not drawn) [Compound 116]	< 500 nM	< 500 nM	< 500 nM	
CC(=O)Nc1ccc(C2=NC(CC(N)=O)c3onc(C)c3-c3sc(C)c(C)c32)cc1 (stereo not drawn) [Compound 118]	< 500 nM	< 500 nM	< 500 nM	
Cc1noc2c1-c1sc(C)c(C)c1C(c1ccc(=O)n(C)c1)=NC2CC(N)=O (stereo not drawn) [Compound 120]	< 500 nM	< 500 nM	500 to 1000 nM	
CCCC1=NC(CC(N)=O)c2onc(C)c2-c2sc(C)c(C)c21 (stereo not drawn) [Compound 124]	< 500 nM	500 to 1000 nM	> 1000 nM	
Cc1noc2c1-c1sc(C)c(C)c1C(C1CCCCC1)=NC2CC(N)=O (stereo not drawn) [Compound 126]	< 500 nM	< 500 nM	> 1000 nM	
Cc1cccc2c1C(c1ccncc1)=N[C@@H](CC(N)=O)c1onc(C)c1-2 [Compound 131]	< 500 nM			IC50 (IL-6 secretion; [3]): < 500 nM; IC50 (MYC mRNA): < 500 nM
Cc1cccc2c1C(c1ccc(Cl)cn1)=N[C@@H](CC(N)=O)c1onc(C)c1-2 [Compound 133]	< 500 nM			IC50 (IL-6 secretion; [3]): < 500 nM; IC50 (MYC mRNA): 500 to 1000 nM
Cc1cccc2c1C(c1ccc(C(N)=O)cc1)=N[C@@H](CC(N)=O)c1onc(C)c1-2 [Compound 134]	< 500 nM			IC50 (IL-6 secretion; [3]): < 500 nM; IC50 (MYC mRNA): 500 to 1000 nM
COc1ccc(C2=N[C@@H](CC(N)=O)c3onc(C)c3-c3cccc(C)c32)cc1 [Compound 135]	< 500 nM			IC50 (IL-6 secretion; [3]): < 500 nM; IC50 (MYC mRNA): < 500 nM
Cc1noc2c1-c1cccc(Cl)c1C(c1ccncc1)=N[C@H]2CC(N)=O [Compound 137]	< 500 nM	< 500 nM	500 to 1000 nM	
Cc1noc2c1-c1cccc(Cl)c1C(c1ccc(F)cc1)=N[C@H]2CC(N)=O [Compound 138]	< 500 nM			IC50 (IL-6 secretion; [3]): < 500 nM; IC50 (MYC mRNA): < 500 nM
Cc1noc2c1-c1cccc(Cl)c1C(c1ccc(C#N)cc1)=N[C@H]2CC(N)=O [Compound 140]	< 500 nM			IC50 (IL-6 secretion; [3]): < 500 nM; IC50 (MYC mRNA): < 500 nM
Cc1noc2c1-c1ccc(Cl)cc1C(c1ccc(Cl)cc1)=N[C@H]2CC(N)=O [Compound 141]	< 500 nM			IC50 (IL-6 secretion; [3]): < 500 nM; IC50 (MYC mRNA): > 1000 nM
Cc1noc2c1-c1ccc(Cl)cc1C(c1ccc(C#N)cc1)=N[C@H]2CC(N)=O [Compound 142]	< 500 nM			IC50 (IL-6 secretion; [3]): < 500 nM; IC50 (MYC mRNA): 500 to 1000 nM

Compound	IC50 (BRD4(BD1); [1])	IC50 (IL-6 secretion; [2])	IC50 (MYC mRNA; Homo sapiens)	other results
CCNC(=O)C[C@@H]1N=C(c2ccc(C#N)cc2)c2cc(Cl)ccc2-c2c(C)noc21 [Compound 143]	< 500 nM			IC50 (IL-6 secretion; [3]): < 500 nM; IC50 (MYC mRNA): 500 to 1000 nM
COc1ccc(C2=N[C@@H](CC(N)=O)c3onc(C)c3-c3ccccc32)cc1 [Compound 146]	< 500 nM	< 500 nM	< 500 nM	
COc1cccc(C2=N[C@@H](CC(N)=O)c3onc(C)c3-c3ccccc32)c1 [Compound 147]	< 500 nM			IC50 (IL-6 secretion; [3]): < 500 nM; IC50 (MYC mRNA): 500 to 1000 nM
CCNC(=O)C[C@@H]1N=C(c2ccc(C#N)cc2)c2ccccc2-c2c(C)noc21 [Compound 149]	< 500 nM			IC50 (IL-6 secretion; [3]): < 500 nM; IC50 (MYC mRNA): < 500 nM
COCCNC(=O)C[C@@H]1N=C(c2ccc(C#N)cc2)c2ccccc2-c2c(C)noc21 [Compound 150]	< 500 nM			IC50 (IL-6 secretion; [3]): < 500 nM; IC50 (MYC mRNA): < 500 nM
Cc1noc2c1-c1ccccc1C(N1CCOCC1)=N[C@H]2CC(N)=O [Compound 152]	> 1000 nM	> 1000 nM	> 1000 nM	
CCOC(=O)NC1N=C(c2ccc(Cl)cc2)c2ccccc2-c2c1noc2C (stereo not drawn) [Compound 155, Ethyl (6-(4-chlorophenyl)-1-methyl-4H-benzo[c]isoxazolo[4,3-e]azepin-4-yl)carbamate]	< 500 nM	500 to 1000 nM	< 500 nM	
CCNC(=O)C[C@@H]1N=C(c2ccc(Cl)cc2)c2ccccc2-c2c(C)noc21 [Compound 159, 2-((4S)-6-(4-chlorophenyl)-1-methyl-4H-benzo[c]isoxazolo[4,5-e]azepin-4-yl)-N-ethylacetamide]	< 500 nM	< 500 nM	< 500 nM	
CCNC(=O)C[C@@H]1N=C(c2ccc(Cl)cc2)c2cc(OC)ccc2-c2c(C)noc21 [Compound 160, 2-((4S)-6-(4-chlorophenyl)-8-methoxy-1-methyl-4H-benzo[c]isoxazolo[4,5-e]azepin-4-yl)-N-ethylacetamide]	< 500 nM	< 500 nM	< 500 nM	
CCNC(=O)C[C@@H]1N=C(c2ccc(Cl)cc2)c2ccccc2-c2c1noc2C [Compound 163, 2-((4S)-6-(4-chlorophenyl)-1-methyl-4H-benzo[c]isoxazolo[4,3-e]azepin-4-yl)-N-ethylacetamide]	< 500 nM	< 500 nM	> 1000 nM	
Cc1noc2c1-c1ccnc(N)c1C(c1ccc(Cl)cc1)=NC2 [Compound 172, 6-(4-Chlorophenyl)-1-methyl-4H-isoxazolo[5,4-c]pyrido[4,3-e]azepin-7-amine]	< 500 nM		500 to 1000 nM	IC50 (IL-6 secretion; Homo sapiens, THP-1, 16 h): < 500 nM
COC(=O)NC[C@@H]1N=C(c2ccc(Cl)cc2)c2c(sc(C)c2C)-c2c(C)noc21 [Compound 183, Methyl (((6S)-4-(4-chlorophenyl)-2,3,9-trimethyl-6H-isoxazolo[5,4-c]thieno[2,3-e]azepin-6-yl)methyl)carbamate]	< 500 nM	500 to 1000 nM		
Cc1noc2c1-c1sc(C)c(C)c1C(Nc1ccc(Cl)cc1)=N[C@H]2CC(N)=O [Compound 185, 2-((6S)-4-((4-Chlorophenyl)amino)-2,3,9-trimethyl-6H-isoxazolo[5,4-c]thieno[2,3-e]azepin-6-yl)acetamide]	> 1000 nM	> 1000 nM		
Cc1noc2c1-c1sc(C)c(C)c1C(OC(C)C)=N[C@H]2CC(N)=O [Compound 193]				IC50 (BRD4(BD1); [4]): 500 to 1000 nM; IC50 (IL-6 secretion; [5]): > 1000 nM
Cc1noc2c1-c1sc(C)c(C)c1C(C1CCN(C)CC1)=N[C@H]2CC(N)=O [Compound 194]				IC50 (BRD4(BD1); [4]): > 1000 nM; IC50 (IL-6 secretion; [5]): > 1000 nM
Cc1noc2c1-c1sc(C)c(C)c1C(C(C)c1ccccc1)=N[C@H]2CC(N)=O (stereo partly drawn) [Compound 195]				IC50 (BRD4(BD1); [4]): > 1000 nM; IC50 (IL-6 secretion; [5]): > 1000 nM
CC(=O)NC1N=C(c2ccc(C#N)cc2)c2ccccc2-c2c(C)noc21 (stereo not drawn) [Compound 263, N-(6-(4-cyanophenyl)-1-methyl-4,1-benzo[c]isoxazolo[4,5-e]azepin-4-yl)acetamide]				IC50 (BRD4(BD1); [4]): < 500 nM; IC50 (IL-6 secretion; [6]): < 500 nM
Cc1noc2c1-c1c[nH]c(=O)cc1C(c1ccc(Cl)cc1)=NC2 [Compound 266, 6-(4-Chlorophenyl)-1-methyl-4H-isoxazolo[5,4-c]pyrido[3,4-e]azepin-8(9H)-one]				IC50 (BRD4(BD1); [4]): < 500 nM; IC50 (IL-6 secretion; [6]): < 500 nM
CCNC(=O)NC1N=C(c2ccc(C#N)cc2)c2ccccc2-c2c(C)noc21 (stereo not drawn) [compound 261]				IC50 (BRD4(BD1); [4]): < 500 nM; IC50 (IL-6 secretion; [5]): < 500 nM
Cc1noc2c1-c1ccccc1C(c1ccc(C#N)cc1)=NC2NC(=O)C(C)C (stereo not drawn) [compound 264]				IC50 (BRD4(BD1); [4]): > 1000 nM; IC50 (IL-6 secretion; [5]): > 1000 nM
